Measurements published in publication PMC3706879, “The neurotrophic compound J147 reverses cognitive impairment in aged Alzheimer's disease mice” (Alzheimer's Research & Therapy, 2013).
“Also recorded” adds a separate entry of the source.

Experiments:
PC12 cells = experiment: neurite outgrowth of PC12 cells with HT22 growth conditioned medium; format: cell-based
Method: The HT22 cell line was used to make growth conditioned medium. HT22 is a nerve cell line derived from mouse brain and is widely used to study nerve cell physiology. To make HT22 growth conditioned medium, cells were grown in DMEM with 10% fetal calf serum. Then, semiconfluent cultures were washed three times with serum-free DMEM and cultured overnight in a reduced volume of DMEM in the presence or absence of 100 nM J147. The following day, the growth conditioned medium was collected and centrifuged at 10,000 × g to remove detached cells. To determine the effect of the conditioned medium on NGF-induced neurite outgrowth, PC12 cells were dissociated and plated on polyornithine-coated tissue culture dishes in the following conditions: 1) HT22 conditioned medium, 2) J147 treated HT22 conditioned medium, 3) DMEM alone plus J147, 4) DMEM plus NGF at 50 nanograms per ml, 5) J147 treated HT22 conditioned medium pre-incubated for one hour with 10 μg/ml anti-NGF and N2 supplement (Invitrogen). N2 supplement, which contains transferrin, was used in the presence of antibody to minimize the possibility that antibody protein non-specifically modified cell-substrate from adhesion and therefore neurite outgrowth. Phase contrast photographs were taken 24 hrs later.

C57BL/6J mice = experiment: Y-maze, scopolamine induced memory impairment; format: in vivo; conditions: scopolamine 1 mg/kg i.p.; J147 200 ppm, donepezil 20 ppm in food for two weeks
Method: A total of 60 male mice aged eight weeks were housed 4 per cage and were divided into five groups with 12 mice per group. Treatments were administered in the food (TestDiet® 5015, Richmond, IN, USA) for a period of two weeks before commencement of behavioral testing. […] Following two weeks of treatment, memory impairment was induced by intraperitoneal (i.p.) injection of scopolamine (1 mg/kg) 30 minutes prior to each of the following behavioral tests: Y-maze, probe trial of the water maze and contextual and cued fear conditioning. Mice were allowed to rest for two days between each behavior test. All mice received scopolamine except for one of the control groups, which received saline as a control. Mice were sacrificed 24 hours after the last behavioral test for tissue harvesting.
Spontaneous alternation, the tendency to alternate free choices in a Y-maze (three arms), is a model for studying short term working memory in mice. Mice were injected with 1 mg/kg of scopolamine or saline 30 minutes prior to testing. Then each mouse was placed in the center of the Y and arm entries were recorded by video camera and the order of entries were recorded for the first 15 entries. Spontaneous alternations are defined as consecutive triplets of different arm choices.

mice [1] = experiment: feeding throughout pregnancy to mice; format: in vivo; conditions: 10 mg/kg/day throughout pregnancy
huAPP/PS1 mice = experiment: fear conditioning assay in aged huAPP/PS1 mice; format: in vivo; conditions: 200 ppm in food for three months
Method: The APPswe/PS1ΔE9 transgenic mice have been previously characterized. The line 85 mice carry two transgenes, the mouse/human chimeric APP/Swe, linked to Swedish FAD and human PS1ΔE9. At 20 months of age both male and female transgenic mice were fed a high fat diet (Harlan Tekland, Madison, WI, USA) with and without J147 (200 ppm, 10 mg/kg/day). Treatment continued for three months and was followed by behavior testing and sacrifice of mice for tissue harvesting. […] (Data not shown).
Fear conditioning to either a cue or a context represents a form of associative learning. The read-out that is measured in contextual and cued fear conditioning is a freezing response that occurs following the pairing of an unconditioned stimulus (US), such as a foot shock, with a conditioned stimulus (CS), such as a particular context or cue (tone). The mouse will freeze if it remembers and associates that environment with the aversive stimulus. […] On Day 2, the time spent freezing is measured over the entire time in the chamber. […] The percentage of time spent freezing by each mouse is averaged per group and then groups can be compared and P-values calculated to determine statistical significance. On Day 3, the percentage of time spent freezing during the two tones is averaged per group, and then groups can be compared and P-values calculated to determine statistical significance. […]

mice [2] = experiment: acute toxicity in mice (Absorption Systems); format: in vivo; conditions: 2 g/kg, oral, maximum testable dose

COc1cccc(/C=N/N(C(=O)C(F)(F)F)c2ccc(C)cc2C)c1 [J147, (E)-N-(2,4-dimethylphenyl)-2,2,2-trifluoro-N'-(3methoxybenzyli-dene) acetohydrazide]
neurite outgrowth, fresh DMEM plus J147 (PC12 cells; 100 nM J147 in fresh DMEM): did not | neurite outgrowth, conditioned medium from J147 treated HT22 cells (PC12 cells; HT22 cells incubated overnight with 100 nM J147, 24 hrs): promoted neurite outgrowth | short-term working memory (spontaneous alternations, Y maze) (C57BL/6J mice): improve short-term working memory | offspring after feeding throughout pregnancy (mice [1]): normal | contextual fear conditioning, freezing Day 2 (huAPP/PS1 mice): rescued | cued fear conditioning, freezing Day 3 (huAPP/PS1 mice): no significant difference between the groups | acute toxicity (mice [2]): no oral toxicity; also recorded: negative results
